± gives the expanded uncertainty stated by the source.
Conditions: Liquid, Closed cell (Static) method

SMILES	vapor or sublimation pressure (258.15 K) [kPa]	vapor or sublimation pressure (263.15 K) [kPa]	vapor or sublimation pressure (273.15 K) [kPa]	vapor or sublimation pressure (283.15 K) [kPa]
CCC [propane]	291.6 ± 1.1	345.3 ± 1.1	474.5 ± 1.2	636.8 ± 1.4
FC(F)(F)I [trifluoroiodomethane]	133 ± 1	160.4 ± 1	228.4 ± 1.1	316.5 ± 1.1
